Where two headings read alike, the source gives them in different places. Numbered stars: 1 amine (or outer) side, 2 acyl side, 3 side chain; on linkers, the order of the positions; unused ones are H or OH. Bridge positions count the residues as written; N and C are the ends. Square brackets hold non-standard residues; d marks the D form. Peptide text beside a SMILES is read from it. * marks the point of attachment. C20 diacid = O=C(O)CCCCCCCCCCCCCCCCCCC(=O)*; γGlu = O=C(O)[C@H](CCC(=O)[*:2])N[*:1]; NMeI = CC[C@H](C)[C@H](NC)C(=O)O; Sar = CNCC(=O)O
Legend:
[1] = Solubility assessment (turbidity absorbance at 325 nm); type: physicochemical; details: stock 2 mg/ml diluted 1:1, ambient temperature (typically 25°C), n=1; for Solubility, Acetate buffer pH 4: 100 mM acetate buffer pH 4.0; for Solubility, Acetate buffer pH 5: 100 mM acetate buffer pH 5.0; for Solubility, Histidine buffer pH 6: 100 mM histidine buffer pH 6.0; for Solubility, Histidine buffer pH 7: 100 mM histidine buffer pH 7.0; for Solubility, Phosphate buffer pH 6: 100 mM phosphate buffer pH 6.0; for Solubility, Phosphate buffer pH 7: 100 mM phosphate buffer pH 7.0; for Solubility, Phosphate buffer pH 7.5: 100 mM phosphate buffer pH7.5
Method in brief: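 Turbidimetric screen across pH 4.0–7.5 in 100 mM acetate, histidine and phosphate buffers. A 2 mg/ml peptide stock (pH 2.5) was diluted 1:1 into each, then A325 measured at ambient temperature; values ≤ 0.02 AU denoted solubility of 1 mg/ml or more.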

[2] = target: T1, human calcitonin receptor (hCTR2) (Homo sapiens, UniProt P30988); test: hCTR2 assay: induction of cAMP (AlphaScreen cAMP Assay kit) in COS7 cells expressing hCTR2; type: cell-based
T1 construct: expressed in transfected cells
T1 sequence (P30988 25-474): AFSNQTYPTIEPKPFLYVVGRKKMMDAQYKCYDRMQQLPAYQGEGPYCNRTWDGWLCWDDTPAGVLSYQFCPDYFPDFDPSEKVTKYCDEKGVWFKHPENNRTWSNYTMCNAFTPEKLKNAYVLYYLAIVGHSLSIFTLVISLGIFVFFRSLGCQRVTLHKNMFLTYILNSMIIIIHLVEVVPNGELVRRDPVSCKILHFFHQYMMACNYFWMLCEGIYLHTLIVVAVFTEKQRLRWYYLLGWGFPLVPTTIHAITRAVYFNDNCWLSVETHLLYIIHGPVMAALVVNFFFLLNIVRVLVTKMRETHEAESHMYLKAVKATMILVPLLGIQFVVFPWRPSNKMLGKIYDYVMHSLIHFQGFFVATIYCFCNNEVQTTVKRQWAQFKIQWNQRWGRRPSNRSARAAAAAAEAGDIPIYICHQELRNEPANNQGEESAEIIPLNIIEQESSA
Method in brief: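 Peptide-induced cAMP in hCTR2-expressing COS7 cells, 15 min at 37° C with phosphodiesterase inhibitor IBMX (100 µM), detected by AlphaScreen; potency from 4PL curves.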

[3] = cAMP induction in COS7 cells expressing hCTR2, average of a minimum of 3 determinations, read-out: hCTR2 EC50

Solubility, Acetate buffer pH 4 [1]	Solubility, Acetate buffer pH 5 [1]	Solubility, Histidine buffer pH 6 [1]	Solubility, Histidine buffer pH 7 [1]	Solubility, Phosphate buffer pH 6 [1]	Solubility, Phosphate buffer pH 7 [1]	Solubility, Phosphate buffer pH 7.5 [1]	EC50 [2, 3]	Compound	EC50 [2]
SS (SS indicates solubility ≥ 1mg/ml)	II (II indicates solubility ≤ 1 mg/ml)	II (II indicates solubility ≤ 1 mg/ml)	SS (SS indicates solubility ≥ 1mg/ml)	SS (SS indicates solubility ≥ 1mg/ml)	SS (SS indicates solubility ≥ 1mg/ml)	SS (SS indicates solubility ≥ 1mg/ml)	0.15 nM	CC[C@H](C)[C@@H](C(=O)N[C@@H](CC(C)C)C(=O)N[C@@H](CO)C(=O)N[C@@H](CO)C(=O)N[C@H](C(=O)N[C@@H](CC(N)=O)C(=O)N[C@H](C(=O)NCC(=O)N[C@@H](CO)C(=O)N[C@@H](CC(N)=O)C(=O)N[C@H](C(=O)N1CCC[C@H]1C(N)=O)[C@@H](C)O)C(C)C)[C@@H](C)O)N(C)C(=O)[C@H](C)NC(=O)CN(C)C(=O)[C@H](Cc1ccccc1)NC(=O)[C@H](CC(N)=O)NC(=O)[C@H](CO)NC(=O)[C@H](CO)NC(=O)[C@H](Cc1c[nH]cn1)NC(=O)[C@H](Cc1c[nH]cn1)NC(=O)[C@H](CC(C)C)NC(=O)[C@H](Cc1ccccc1)NC(=O)[C@H](CCC(=O)O)NC(=O)[C@H](C)NC(=O)[C@H](CC(C)C)NC(=O)[C@H](CCCNC(=N)N)NC(=O)[C@H](CCC(N)=O)NC(=O)[C@@H](NC(=O)[C@H](C)NC(=O)[C@@H]1CSSC[C@H](NC(=O)[C@H](CCCNC(=N)N)NC(=O)CC[C@H](NC(=O)CCCCCCCCCCCCCCCCCCC(=O)O)C(=O)O)C(=O)N[C@@H](CC(N)=O)C(=O)N[C@@H]([C@@H](C)O)C(=O)N[C@@H](C)C(=O)N[C@@H]([C@@H](C)O)C(=O)N1)[C@@H](C)O [Compound 44, [19CD]-isoGlu-RC()NTATC()ATQRLAEFLHHSSNF-Gly(Me)-A-Ile(Me)-LSSTNVGSNTP-NH2] ({C20 diacid-γGlu}-RCNTATCATQRLAEFLHHSSNF[Sar]A[NMeI]LSSTNVGSNTP-NH2; disulfide 2-7)	–
II (II indicates solubility ≤ 1 mg/ml)	II (II indicates solubility ≤ 1 mg/ml)	II (II indicates solubility ≤ 1 mg/ml)	II (II indicates solubility ≤ 1 mg/ml)	II (II indicates solubility ≤ 1 mg/ml)	II (II indicates solubility ≤ 1 mg/ml)	II (II indicates solubility ≤ 1 mg/ml)	0.15 nM	CC[C@H](C)[C@@H](C(=O)N[C@@H](CC(C)C)C(=O)N[C@@H](CO)C(=O)N[C@@H](CO)C(=O)N[C@H](C(=O)N[C@@H](CC(N)=O)C(=O)N[C@H](C(=O)NCC(=O)N[C@@H](CO)C(=O)N[C@@H](CC(N)=O)C(=O)N[C@H](C(=O)N1CCC[C@H]1C(N)=O)[C@@H](C)O)C(C)C)[C@@H](C)O)N(C)C(=O)CN(C)C(=O)[C@H](Cc1ccccc1)NC(=O)[C@H](CC(N)=O)NC(=O)[C@H](CC(N)=O)NC(=O)[C@H](CO)NC(=O)[C@H](Cc1c[nH]cn1)NC(=O)[C@H](Cc1c[nH]cn1)NC(=O)[C@H](CC(C)C)NC(=O)[C@H](Cc1ccccc1)NC(=O)[C@H](CCC(=O)O)NC(=O)[C@H](C)NC(=O)[C@H](CC(C)C)NC(=O)[C@H](CCCNC(=N)N)NC(=O)[C@H](CCC(N)=O)NC(=O)[C@@H](NC(=O)[C@H](C)NC(=O)[C@@H]1CSSC[C@H](NC(=O)[C@H](CCCNC(=N)N)NC(=O)CC[C@H](NC(=O)CCCCCCCCCCCCCCCCCCC(=O)O)C(=O)O)C(=O)N[C@@H](CC(N)=O)C(=O)N[C@@H]([C@@H](C)O)C(=O)N[C@@H](C)C(=O)N[C@@H]([C@@H](C)O)C(=O)N1)[C@@H](C)O [Compound 46, [19CD]-isoGlu-RC()NTATC()ATQRLAEFLHHSNNF-Gly(Me)-Ile(Me)-LSSTNVGSNTP-NH2] ({C20 diacid-γGlu}-RCNTATCATQRLAEFLHHSNNF[Sar][NMeI]LSSTNVGSNTP-NH2; disulfide 2-7)	–
SS (SS indicates solubility ≥ 1mg/ml)	SS (SS indicates solubility ≥ 1mg/ml)	SS (SS indicates solubility ≥ 1mg/ml)	SS (SS indicates solubility ≥ 1mg/ml)	SS (SS indicates solubility ≥ 1mg/ml)	SS (SS indicates solubility ≥ 1mg/ml)	SS (SS indicates solubility ≥ 1mg/ml)	0.06 nM	CC[C@H](C)[C@@H](C(=O)N[C@@H](CC(C)C)C(=O)N[C@@H](CO)C(=O)N[C@@H](CO)C(=O)N[C@H](C(=O)N[C@@H](CC(N)=O)C(=O)N[C@H](C(=O)NCC(=O)N[C@@H](CO)C(=O)N[C@@H](CC(N)=O)C(=O)N[C@H](C(=O)N1CCC[C@H]1C(N)=O)[C@@H](C)O)C(C)C)[C@@H](C)O)N(C)C(=O)[C@H](C)NC(=O)CN(C)C(=O)[C@H](Cc1ccccc1)NC(=O)[C@H](CC(N)=O)NC(=O)[C@H](CC(N)=O)NC(=O)[C@H](Cc1c[nH]cn1)NC(=O)[C@H](Cc1c[nH]cn1)NC(=O)[C@H](CC(C)C)NC(=O)[C@H](Cc1ccccc1)NC(=O)[C@H](CCC(=O)O)NC(=O)[C@H](C)NC(=O)[C@H](CC(C)C)NC(=O)[C@H](CCCNC(=N)N)NC(=O)[C@H](CCC(N)=O)NC(=O)[C@@H](NC(=O)[C@H](C)NC(=O)[C@@H]1CSSC[C@H](NC(=O)[C@H](CCCNC(=N)N)NC(=O)CC[C@H](NC(=O)CCCCCCCCCCCCCCCCCCC(=O)O)C(=O)O)C(=O)N[C@@H](CC(N)=O)C(=O)N[C@@H]([C@@H](C)O)C(=O)N[C@@H](C)C(=O)N[C@@H]([C@@H](C)O)C(=O)N1)[C@@H](C)O [Compound 47, [19CD]-isoGlu-RC()NTATC()ATQRLAEFLHHNNF-Gly(Me)-A-Ile(Me)-LSSTNVGSNTP-NH2] ({C20 diacid-γGlu}-RCNTATCATQRLAEFLHHNNF[Sar]A[NMeI]LSSTNVGSNTP-NH2; disulfide 2-7)	–

Compound	Solubility, Acetate buffer pH 4 [1]	Solubility, Acetate buffer pH 5 [1]	Solubility, Histidine buffer pH 6 [1]	Solubility, Histidine buffer pH 7 [1]	Solubility, Phosphate buffer pH 6 [1]	Solubility, Phosphate buffer pH 7 [1]	Solubility, Phosphate buffer pH 7.5 [1]	EC50 [2, 3]	EC50 [2]
CC[C@H](C)[C@@H](C(=O)N[C@@H](CC(C)C)C(=O)N[C@@H](CO)C(=O)N[C@@H](CO)C(=O)N[C@H](C(=O)N[C@@H](CC(N)=O)C(=O)N[C@H](C(=O)NCC(=O)N[C@@H](CO)C(=O)N[C@@H](CC(N)=O)C(=O)N[C@H](C(=O)N1CCC[C@H]1C(N)=O)[C@@H](C)O)C(C)C)[C@@H](C)O)N(C)C(=O)[C@H](C)NC(=O)CN(C)C(=O)[C@H](Cc1ccccc1)NC(=O)[C@H](CC(N)=O)NC(=O)[C@H](CC(N)=O)NC(=O)[C@H](CO)NC(=O)[C@H](Cc1c[nH]cn1)NC(=O)[C@H](Cc1c[nH]cn1)NC(=O)[C@H](CC(C)C)NC(=O)[C@H](Cc1ccccc1)NC(=O)[C@H](CCC(=O)O)NC(=O)[C@H](C)NC(=O)[C@H](CC(C)C)NC(=O)[C@H](CCCNC(=N)N)NC(=O)[C@H](CCC(N)=O)NC(=O)[C@@H](NC(=O)[C@H](C)NC(=O)[C@@H]1CSSC[C@H](NC(=O)[C@H](CCCNC(=N)N)NC(=O)CC[C@H](NC(=O)CCCCCCCCCCCCCCCCCCC(=O)O)C(=O)O)C(=O)N[C@@H](CC(N)=O)C(=O)N[C@@H]([C@@H](C)O)C(=O)N[C@@H](C)C(=O)N[C@@H]([C@@H](C)O)C(=O)N1)[C@@H](C)O [Compound 45, [19CD]-isoGlu-RC()NTATC()ATQRLAEFLHHSNNF-Gly(Me)-A-Ile(Me)-LSSTNVGSNTP-NH2] ({C20 diacid-γGlu}-RCNTATCATQRLAEFLHHSNNF[Sar]A[NMeI]LSSTNVGSNTP-NH2; disulfide 2-7)	II (II indicates solubility ≤ 1 mg/ml)	II (II indicates solubility ≤ 1 mg/ml)	II (II indicates solubility ≤ 1 mg/ml)	II (II indicates solubility ≤ 1 mg/ml)	II (II indicates solubility ≤ 1 mg/ml)	II (II indicates solubility ≤ 1 mg/ml)	II (II indicates solubility ≤ 1 mg/ml)	–	0.14 nM

Reference: EP3046573B1, “AMYLIN ANALOGUES” (Zealand Pharma A/S, priority 2013, dated 2015)
